From US20240287070A1, “FUSED HETEROCYCLIC DERIVATIVES” (Janssen Sciences Ireland Unlimited Company, priority 2021, published 2024)

How the values were obtained:
[1] = system: HBV (HepG2.117 cell line, inducibly HBV producing); test: Anti-HBV activity, intracellular HBV DNA by real-time PCR in HepG2.117 cell line; assay type: cell-based, hepatitis B virus; details: HepG2.117 cells, 3 days of treatment
Protocol: The anti HBV activity was measured using the HepG2.117 cell line, a stable, inducibly HBV producing cell line, which replicates HBV in the absence of doxycycline (Tet-off system). The HepG2 cell line is available from ATCCR under number HB-8065. Transfection of the HepG2 cell line can be as described in Sun and Nassal 2006 Journal of Hepatology 45 (2006) 636-645 “Stable HepG2- and Huh7-based human hepatoma cell lines for efficient regulated expression of infectious hepatitis B virus”.
For the antiviral assay, HBV replication was induced, followed by a treatment with serially diluted compound in 96-well plates. After 3 days of treatment, the antiviral activity was determined by quantification of intracellular HBV DNA using real-time PCR and an HBV specific primer set and probe.

[2] = Cytotoxicity, ATPlite Luminescence Assay; assay type: cell-based, human; details: human, HepG2 or HepG2.117 cells, 3-days incubation unless marked with *
Protocol: Cytotoxicity of the compounds was tested using HepG2 or HepG2.117 cells, incubated for 3 or 4 days in the presence of compounds. The viability of the cells was assessed using the PERKIN ELMER ATPlite Luminescence Assay System.”

[3] = Human liver microsome stability; assay type: in vitro ADME; details: 1 μM compound, NADPH 1 mM, 37° C., 0-60 min; for half-life at 1 μM: human, pooled human liver microsomes, pH 7.4, pooled human liver microsomes 0.5 mg/mL, read-out: HLM Metabolism t1/2
Protocol: Human Liver Microsome Stability t½ (Min) of Compounds of Formula (I) […] All incubations are performed singularly for each compound. NADPH was added to initiate the reaction with the final concentration of 1 mM and the final incubation volume of 400 μL. At 6 time points (0, 5, 10, 20, 40 and 60 min) reactions were stopped by the removal of 50 μL of the incubation mixture into plates containing acetonitrile at a of 1:3 (v:v). The plates were centrifuged at 3000 rpm for 10 min at 4° C. to precipitate the protein. Following protein precipitation, the sample supernatants were combined in cassettes of up to 8 compounds. The internal standard was added (1:1 supernatant to internal standard solution) and samples were analyzed using standard LC-MS conditions. From a plot of ln peak area ratio (compound peak area/internal standard peak area) against time, the gradient of the line is determined. Subsequently, half-life is calculated using the equations below: Elimination rate constant (k)=(−gradient) […]

[4] = Hepatitis B virus, HepG2.117, 72 h

**Q.** Which EC50 [1] does the source give for `CNC(=O)C1(Oc2ccc(C(C)N3C[C@@H](C)n4nc5c(c4C3=O)CN(C(=O)c3ccc(Cl)c(C#N)c3)[C@H](C)C5)cc2)CC1` (single isomer, unassigned) [Compound 13A, 1-(4-((R*)-1-((3R,7R)-2-(4-chloro-3-cyanobenzoyl)-3,7-dimethyl-10-oxo-1,2,3,4,7,8-hexahydropyrido[4′,3′:3,4]pyrazolo[1,5-a]pyrazin-9(10H)-yl)ethyl)phenoxy)-N-methylcyclopropanecarboxamide] here?
**A.** 0.037 µM

**Q.** What about the CC50 at 3 days [2] of the same compound?
**A.** > 50 µM

**Q.** And the half-life at 1 μM [3]?
**A.** 1.88 h

**Q.** What does the source list for `C[C@@H]1Cc2nn3c(c2CN1C(=O)c1ccc(Cl)c(Cl)c1)C(=O)N([C@@H](C)c1ccc([S@@](C)(=N)=O)cc1)C[C@H]3C` (relative stereo) [Compound 18D, (3R,7R)-2-(3,4-dichlorobenzoyl)-3,7-dimethyl-9-((S*)-1-(4-((S*)—S-methylsulfonimidoyl)phenyl)ethyl)-1,2,3,4,8,9-hexahydropyrido[4′,3′:3,4]pyrazolo[1,5-a]pyrazin-10(7H)-one]?
**A.** EC50 [1, 4]: 0.024 µM; CC50 at 3 days [2]: > 50 µM; half-life at 1 μM [3]: > 3 h

**Q.** For `CC(c1ccc(C(C)(C)O)nc1)N1C[C@@H](C)n2nc3c(c2C1=O)CN(C(=O)c1cc(C(F)(F)F)c(Cl)cn1)[C@H](C)C3` (single isomer, unassigned) [Compound 58A, (3R,7R)-2-(5-chloro-4-(trifluoromethyl)picolinoyl)-9-((R*)-1-(6-(2-hydroxypropan-2-yl)pyridin-3-yl)ethyl)-3,7-dimethyl-1,2,3,4,8,9-hexahydropyrido[4′,3′:3,4]pyrazolo[1,5-a]pyrazin-10(7H)-one], which EC50 [1] is on record?
**A.** > 2.5 µM

**Q.** What about the CC50 at 3 days [2] of the same compound?
**A.** > 50 µM

**Q.** What about the half-life at 1 μM [3] of the same compound?
**A.** > 3 h

**Q.** With `Cc1nnn(-c2ccc(C(C)N3C[C@@H](C)n4nc5c(c4C3=O)CN(C(=O)c3ccc(Cl)c(Cl)c3)[C@H](C)C5)cn2)n1` (single isomer, unassigned) [Compound 26A, (3R,7R)-2-(3,4-dichlorobenzoyl)-3,7-dimethyl-9-((R*)-1-(6-(5-methyl-2H-tetrazol-2-yl)pyridin-3-yl)ethyl)-1,2,3,4,8,9-hexahydropyrido[4′,3′:3,4]pyrazolo[1,5-a]pyrazin-10(7H)-one] as the compound, how does the EC50 [1] read?
**A.** 0.14 µM

**Q.** And the CC50 at 3 days [2]?
**A.** > 50 µM

**Q.** And the half-life at 1 μM [3]?
**A.** 1.38 h

**Q.** For `CNC(=O)C(c1ccc(OC(F)F)cc1)N1C[C@@H](C)n2nc3c(c2C1=O)CN(C(=O)c1ccc(Cl)c(Cl)c1)[C@H](C)C3` (single isomer, unassigned) [Compound 23A, (R*)-2-((3R,7R)-2-(3,4-dichlorobenzoyl)-3,7-dimethyl-10-oxo-1,3,4,7,8,10-hexahydropyrido[4′,3′:3,4]pyrazolo[1,5-a]pyrazin-9(2H)-yl)-2-(4-(difluoromethoxy)phenyl)-N-methylacetamide], which EC50 [1] is on record?
**A.** 0.066 µM

**Q.** What about the CC50 at 3 days [2] of the same compound?
**A.** 32.1 µM

**Q.** And the half-life at 1 μM [3]?
**A.** 1.88 h

**Q.** For `C[C@@H]1Cc2nn3c(c2CN1C(=O)c1ccc(Cl)c(C(F)(F)F)c1)C(=O)N([C@@H](C)c1ccc([S@](C)(=N)=O)cc1)C[C@H]3C` (relative stereo) [Compound 19C, (3R,7R)-2-(4-chloro-3-(trifluoromethyl)benzoyl)-3,7-dimethyl-9-((S*)-1-(4-((R*)—S-methylsulfonimidoyl)phenyl)ethyl)-1,2,3,4,8,9-hexahydropyrido[4′,3′:3,4]pyrazolo[1,5-a]pyrazin-10(7H)-one], which EC50 [1, 4] is on record?
**A.** 0.011 µM

**Q.** What about the CC50 at 3 days [2] of the same compound?
**A.** > 50 µM

**Q.** And the half-life at 1 μM [3]?
**A.** > 3 h

**Q.** Which results are given for `C[C@@H]1Cc2nn3c(c2CN1C(=O)c1ccc(Cl)c(C(F)(F)F)c1)C(=O)N([C@H](C)c1ccc([S@@](C)(=N)=O)cc1)C[C@H]3C` (relative stereo) [Compound 19B, (3R,7R)-2-(4-chloro-3-(trifluoromethyl)benzoyl)-3,7-dimethyl-9-((R*)-1-(4-((S*)—S-methylsulfonimidoyl)phenyl)ethyl)-1,2,3,4,8,9-hexahydropyrido[4′,3′:3,4]pyrazolo[1,5-a]pyrazin-10(7H)-one]?
**A.** EC50 [1, 4]: 0.015 µM; CC50 at 3 days [2]: > 50 µM; half-life at 1 μM [3]: > 3 h

**Q.** What does the source list for `CNS(=O)(=O)c1ccc(C(C)N2C[C@@H](C)n3nc4c(c3C2=O)CN(C(=O)c2ccc(Cl)c(Cl)c2)[C@H](C)C4)cc1` (single isomer, unassigned) [Compound 17A, 4-((R*)-1-((3R,7R)-2-(3,4-dichlorobenzoyl)-3,7-dimethyl-10-oxo-1,3,4,7,8,10-hexahydropyrido[4′,3′:3,4]pyrazolo[1,5-a]pyrazin-9(2H)-yl)ethyl)-N-methylbenzenesulfonamide]?
**A.** EC50 [1]: 0.077 µM; CC50 at 3 days [2]: > 50 µM; half-life at 1 μM [3]: 2.9 h

**Q.** For `CC(c1cnc(C(C)(C)O)cn1)N1C[C@@H](C)n2nc3c(c2C1=O)CN(C(=O)c1ccc(Cl)c(C(F)(F)F)c1)[C@H](C)C3` (single isomer, unassigned) [Compound 41A, (3R,7R)-2-(4-chloro-3-(trifluoromethyl)benzoyl)-9-((R*)-1-(5-(2-hydroxypropan-2-yl)pyrazin-2-yl)ethyl)-3,7-dimethyl-1,2,3,4,8,9-hexahydropyrido[4′,3′:3,4]pyrazolo[1,5-a]pyrazin-10(7H)-one], which EC50 [1] is on record?
**A.** 0.076 µM

**Q.** What about the CC50 at 3 days [2] of the same compound?
**A.** > 50 µM

**Q.** And the half-life at 1 μM [3]?
**A.** > 3 h

**Q.** Which results are given for `Cc1nnn(-c2ccc(C(C)N3C[C@@H](C)n4nc5c(c4C3=O)CN(C(=O)c3ccc(Cl)c(Cl)c3)[C@H](C)C5)cc2)n1` (single isomer, unassigned) [Compound 22A, (3R,7R)-2-(3,4-dichlorobenzoyl)-3,7-dimethyl-9-((R*)-1-(4-(5-methyl-2H-tetrazol-2-yl)phenyl)ethyl)-1,2,3,4,8,9-hexahydropyrido[4′,3′:3,4]pyrazolo[1,5-a]pyrazin-10(7H)-one]?
**A.** EC50 [1, 4]: 0.034 µM; CC50 at 3 days [2]: > 50 µM; half-life at 1 μM [3]: 1.35 h

**Q.** With `CC(c1cnc(C(C)(C)O)nc1)N1C[C@@H](C)n2nc3c(c2C1=O)CN(C(=O)c1ccc(Cl)c(Cl)c1)[C@H](C)C3` (single isomer, unassigned) [Compound 36A, (3R,7R)-2-(3,4-Dichlorobenzoyl)-9-((R*)-1-(2-(2-hydroxypropan-2-yl)pyrimidin-5-yl)ethyl)-3,7-dimethyl-1,2,3,4,8,9-hexahydropyrido[4′,3′:3,4]pyrazolo[1,5-a]pyrazin-10(7H)-one] as the compound, how does the EC50 [1] read?
**A.** 0.64 µM

**Q.** And the CC50 at 3 days [2]?
**A.** > 50 µM

**Q.** And the half-life at 1 μM [3]?
**A.** > 3 h

**Q.** What does the source list for `CC(c1ccnc(Cl)c1)N1C[C@@H](C)n2nc3c(c2C1=O)CN(C(=O)c1ccc(Cl)c(Cl)c1)[C@H](C)C3` (single isomer, unassigned) [Compound 31A, (3R,7R)-9-((R*)-1-(2-chloropyridin-4-yl)ethyl)-2-(3,4-dichlorobenzoyl)-3,7-dimethyl-1,2,3,4,8,9-hexahydropyrido[4′,3′:3,4]pyrazolo[1,5-a]pyrazin-10(7H)-one]?
**A.** EC50 [1]: 0.051 µM; CC50 at 3 days [2]: 31.5 µM; half-life at 1 μM [3]: 1.9 h

**Q.** Which results are given for `CC(c1nnc(C2CC2)o1)N1C[C@@H](C)n2nc3c(c2C1=O)CN(C(=O)c1ccc(Cl)c(Cl)c1)[C@H](C)C3` (single isomer, unassigned) [Compound 44A, (3R,7R)-9-((R*)-1-(5-cyclopropyl-1,3,4-oxadiazol-2-yl)ethyl)-2-(3,4-dichlorobenzoyl)-3,7-dimethyl-1,2,3,4,8,9-hexahydropyrido[4′,3′:3,4]pyrazolo[1,5-a]pyrazin-10(7H)-one]?
**A.** EC50 [1]: 0.22 µM; CC50 at 3 days [2]: > 50 µM; half-life at 1 μM [3]: > 3 h

**Q.** Which EC50 [1, 4] does the source give for `CC(c1ccc(N2CCCS2(=O)=O)nc1)N1C[C@@H](C)n2nc3c(c2C1=O)CN(C(=O)c1ccc(Cl)c(C(F)(F)F)c1)[C@H](C)C3` (single isomer, unassigned) [Compound 28A, (3R,7R)-2-(4-chloro-3-(trifluoromethyl)benzoyl)-9-((R*)-1-(6-(1,1-dioxidoisothiazolidin-2-yl)pyridin-3-yl)ethyl)-3,7-dimethyl-1,2,3,4,8,9-hexahydropyrido[4′,3′: 3,4]pyrazolo[1,5-a]pyrazin-10(7H)-one] here?
**A.** 0.012 µM

**Q.** What about the CC50 at 3 days [2] of the same compound?
**A.** > 50 µM

**Q.** And the “HLM Metabolism t1/2” value ([3]; pooled human liver microsomes 0.5 mg/mL)?
**A.** 0.835 h

**Q.** With `CC(c1ccc(C(C)(C)O)nc1)N1C[C@@H](C)n2nc3c(c2C1=O)CN(C(=O)c1ccc(Cl)c(F)c1F)[C@H](C)C3` (single isomer, unassigned) [Compound 61A, (3R,7R)-2-(4-chloro-2,3-difluorobenzoyl)-9-((R*)-1-(6-(2-hydroxypropan-2-yl)pyridin-3-yl)ethyl)-3,7-dimethyl-1,2,3,4,8,9-hexahydropyrido[4′,3′:3,4]pyrazolo[1,5-a]pyrazin-10(7H)-one] as the compound, how does the EC50 [1] read?
**A.** 2.34 µM

**Q.** And the CC50 at 3 days [2]?
**A.** > 50 µM

**Q.** And the half-life at 1 μM [3]?
**A.** > 3 h
